Source: article PMC7463651, “Phase I/Ib Study of Tenalisib (RP6530), a Dual PI3K δ/γ Inhibitor in Patients with Relapsed/Refractory T-Cell Lymphoma” (Cancers, 2020)
Entries after “also recorded” stand apart in the source; their conditions may differ.

Test system: patients with relapsed/refractory T Cell Lymphoma
Experiment: Safety assessment (adverse events per CTCAE v4.03, DLT/MTD) in phase I/Ib study
Format: in vivo, human
Experimental: Protocol defined hematological or non-hematological toxicity was considered dose-limiting if it occurred during the first cycle (within the first 28 d) and was considered related to Tenalisib. Hematological DLTs was defined as Grade 4 anemia; Grade 4 neutropenia for >7 days, or Grade ≥3 febrile neutropenia with fever >38.5 °C [101 °F]; Grade 4 thrombocytopenia for >7 days, or Grade ≥3 thrombocytopenia associated with Grade >2 bleeding.
Safety assessment included adverse event (AE) and serious adverse events (SAE) as per Common Terminology Criteria for Adverse Events (CTCAE), Version 4.03. During dose escalation, safety assessments were performed at weekly intervals during Cycle 1 and Cycle 2 and at two weekly intervals during Cycle 3 and 4. After completion of Cycle 4, safety assessments were performed on Day 1 of each subsequent cycle. In dose expansion phase, all safety assessments were performed on Day 1 of each cycle.

[1] = Relationship-Related, Dose Escalation (N = 19)
[2] = Relationship-Related, Dose Expansion (N = 39)
[3] = Relationship-Related, Total (N = 58)

Q: Which “Maximum tolerated dose (MTD)” value (BID, fasting) does the source give for CC[C@H](Nc1ncnc2[nH]cnc12)c1oc2ccccc2c(=O)c1-c1cccc(F)c1 [Tenalisib] here?
A: The value was 800 mg.

Q: And the “Number of related AEs” value (CTCL patients)?
A: The value was 208.

Q: And the “Number of related ≥Grade 3 AEs” value (CTCL patients)?
A: The value was 25.

Q: And the “Patients with related AEs” value (CTCL patients)?
A: Its value is 27 (90%) n (%).

Q: What about the “Patients with related ≥Grade 3 AEs” value (CTCL patients) of the same molecule?
A: The value was 12 (40%) n (%).

Q: What about the “Dose-limiting toxicities (DLT)” value (Cohort 4, 800 mg BID (fed)) of the same molecule?
A: The value was “Two dose-limiting toxicities; also recorded: Two DLTs (Grade 3 ALT increased and Grade 3 erythematous rash)”.

Q: What about the “Number of related AEs” value (PTCL patients) of the same molecule?
A: Its value is 51.

Q: What about the “Neutropenia: patients with event” value [1] of the same molecule?
A: Its value is 2 (10.5%) n (%).

Q: What about the “Pruritus: count of events” value [1] of the same molecule?
A: The value was 1.

Q: And the “Pruritus: patients with event” value [1]?
A: The value was 1 (5.3%) n (%).

Q: What about the “Pyrexia: patients with event” value [1] of the same molecule?
A: The value was 0 n (%).

Q: What about the “Vomiting: count of events” value [1] of the same molecule?
A: The value was 3.

Q: What about the “Vomiting: patients with event” value [1] of the same molecule?
A: Its value is 2 (10.5%) n (%).

Q: And the “Alanine aminotransferase increased: count of events” value [2]?
A: The value was 18.

Q: What about the “Alanine aminotransferase increased: patients with event” value [2] of the same molecule?
A: The value was 12 (30.8%) n (%).

Q: And the “Anemia: count of events” value [2]?
A: Its value is 2.

Q: And the “Anemia: patients with event” value [2]?
A: The value was 2 (5.1%) n (%).

Q: And the “Aspartate aminotransferase increased: count of events” value [2]?
A: Its value is 20.

Q: And the “Aspartate aminotransferase increased: patients with event” value [2]?
A: Its value is 12 (30.8%) n (%).

Q: What about the “Blood alkaline phosphatase increased: count of events” value [2] of the same molecule?
A: The value was 2.

Q: And the “Blood alkaline phosphatase increased: patients with event” value [2]?
A: Its value is 2 (5.1%) n (%).

Q: And the “Blood thyroid stimulating hormone increased: count of events” value [2]?
A: Its value is 3.

Q: And the “Blood thyroid stimulating hormone increased: patients with event” value [2]?
A: The value was 2 (5.1%) n (%).

Q: What about the “Dehydration: count of events” value [2] of the same molecule?
A: The value was 3.

Q: What about the “Dehydration: patients with event” value [2] of the same molecule?
A: The value was 3 (7.7%) n (%).

Q: And the “Diarrhea: count of events” value [2]?
A: Its value is 10.

Q: What about the “Diarrhea: patients with event” value [2] of the same molecule?
A: Its value is 9 (23.1%) n (%).

Q: And the “Dizziness: count of events” value [2]?
A: The value was 3.

Q: And the “Dizziness: patients with event” value [2]?
A: Its value is 3 (7.7%) n (%).

Q: What about the “Dyspepsia: count of events” value [2] of the same molecule?
A: The value was 2.

Q: And the “Dyspepsia: patients with event” value [2]?
A: The value was 2 (5.1%) n (%).

Q: And the “Erythema: count of events” value [2]?
A: Its value is 2.

Q: What about the “Erythema: patients with event” value [2] of the same molecule?
A: The value was 2 (5.1%) n (%).

Q: And the “Fatigue: count of events” value [2]?
A: Its value is 7.

Q: And the “Fatigue: patients with event” value [2]?
A: Its value is 7 (17.9%) n (%).

Q: And the “Gamma-glutamyltransferase increased: count of events” value [2]?
A: The value was 7.

Q: What about the “Gamma-glutamyltransferase increased: patients with event” value [2] of the same molecule?
A: The value was 5 (12.8%) n (%).

Q: And the “Headache: count of events” value [2]?
A: Its value is 2.

Q: What about the “Headache: patients with event” value [2] of the same molecule?
A: The value was 2 (5.1%) n (%).

Q: What about the “Muscle spasms: count of events” value [2] of the same molecule?
A: The value was 3.

Q: What about the “Muscle spasms: patients with event” value [2] of the same molecule?
A: The value was 3 (7.7%) n (%).

Q: What about the “Nausea: count of events” value [2] of the same molecule?
A: Its value is 2.

Q: And the “Nausea: patients with event” value [2]?
A: The value was 2 (5.1%) n (%).

Q: And the “Neutropenia: count of events” value [2]?
A: Its value is 1.

Q: What about the “Neutropenia: patients with event” value [2] of the same molecule?
A: Its value is 1 (2.6%) n (%).

Q: And the “Pruritus: count of events” value [2]?
A: The value was 3.

Q: What about the “Pruritus: patients with event” value [2] of the same molecule?
A: Its value is 3 (7.7%) n (%).

Q: What about the “Pyrexia: count of events” value [2] of the same molecule?
A: Its value is 5.

Q: What about the “Pyrexia: patients with event” value [2] of the same molecule?
A: The value was 3 (7.7%) n (%).

Q: And the “Vomiting: count of events” value [2]?
A: The value was 1.

Q: And the “Vomiting: patients with event” value [2]?
A: Its value is 1 (2.6%) n (%).

Q: What about the “Alanine aminotransferase increased: count of events” value [3] of the same molecule?
A: The value was 31.

Q: And the “Alanine aminotransferase increased: patients with event” value [3]?
A: The value was 18 (31.0%) n (%).

Q: And the “Anemia: count of events” value [3]?
A: Its value is 3.

Q: What about the “Anemia: patients with event” value [3] of the same molecule?
A: Its value is 3 (5.2%) n (%).

Q: What about the “Aspartate aminotransferase increased: count of events” value [3] of the same molecule?
A: Its value is 35.

Q: What about the “Aspartate aminotransferase increased: patients with event” value [3] of the same molecule?
A: Its value is 18 (31.0%) n (%).

Q: And the “Blood alkaline phosphatase increased: count of events” value [3]?
A: Its value is 3.

Q: What about the “Blood alkaline phosphatase increased: patients with event” value [3] of the same molecule?
A: The value was 3 (5.2%) n (%).

Q: What about the “Blood thyroid stimulating hormone increased: count of events” value [3] of the same molecule?
A: Its value is 5.

Q: What about the “Blood thyroid stimulating hormone increased: patients with event” value [3] of the same molecule?
A: The value was 4 (6.9%) n (%).

Q: And the “Dehydration: count of events” value [3]?
A: The value was 4.

Q: And the “Dehydration: patients with event” value [3]?
A: Its value is 4 (6.9%) n (%).

Q: What about the “Diarrhea: count of events” value [3] of the same molecule?
A: Its value is 14.

Q: What about the “Diarrhea: patients with event” value [3] of the same molecule?
A: Its value is 12 (20.7%) n (%).

Q: And the “Dizziness: count of events” value [3]?
A: The value was 5.

Q: What about the “Dizziness: patients with event” value [3] of the same molecule?
A: The value was 5 (8.6%) n (%).

Q: What about the “Dyspepsia: count of events” value [3] of the same molecule?
A: Its value is 3.

Q: And the “Dyspepsia: patients with event” value [3]?
A: Its value is 3 (5.2%) n (%).

Q: And the “Erythema: count of events” value [3]?
A: Its value is 3.

Q: And the “Erythema: patients with event” value [3]?
A: The value was 3 (5.2%) n (%).

Q: What about the “Fatigue: count of events” value [3] of the same molecule?
A: The value was 9.

Q: What about the “Fatigue: patients with event” value [3] of the same molecule?
A: Its value is 9 (15.5%) n (%).

Q: And the “Gamma-glutamyltransferase increased: count of events” value [3]?
A: Its value is 9.

Q: And the “Gamma-glutamyltransferase increased: patients with event” value [3]?
A: The value was 7 (12.1%) n (%).

Q: What about the “Headache: count of events” value [3] of the same molecule?
A: The value was 6.

Q: What about the “Headache: patients with event” value [3] of the same molecule?
A: The value was 5 (8.6%) n (%).

Q: What about the “Muscle spasms: count of events” value [3] of the same molecule?
A: Its value is 6.

Q: What about the “Muscle spasms: patients with event” value [3] of the same molecule?
A: The value was 5 (8.6%) n (%).

Q: And the “Nausea: count of events” value [3]?
A: Its value is 4.

Q: What about the “Nausea: patients with event” value [3] of the same molecule?
A: The value was 3 (5.2%) n (%).
